# From patent US12558348B2, “Bioactive phytochemicals” (Phytoquest Limited, priority 2019, dated 2026)
# Marks after values point to notes of the source that are not given here.
# What was measured:
# CD44-HA binding = assay: CD44-HA (hyaluronic acid) binding activity in THP-1 cells by ELISA; assay type: cell-based, human; settings: for CD44-HA: LPS-stimulated THP-1; for % reduction in CD44-HA levels: vs LPS control
# Protocol: The THP-1 cells were cultured in RPMI media supplemented with mercaptoethanol & glutamine to get 80% confluence in the culture flask, then aspirated and centrifuged at 1500 rpm for 5 mins. The cell pellet was then resuspended in 1 ml of RPMI complete media and counted conventionally using a hemocytometer. The cells (5×106) were incubated with Phorbol 12-myristate 13-acetate (PMA) (10 ng/ml) in separate dishes to cause differentiation of the THP-1 cells. To determine the CD44-HA binding activity, THP-1 cells were pretreated for 1 hr with idoBR1 or cucumber extract-Q-actin (batch no. B17CF001) at the concentrations 100 μg/ml to 12.5 μg/ml and 200 μg/ml to 25 μg/ml respectively followed by 24 hr LPS (1 μg/ml) stimulation. Post incubation, the cell lysates were taken for further analysis.
# Anti-CD44 monoclonal antibody (Invitrogen, 2 μg) was coated to each well in 96-well plates in 50 mM carbonate/bicarbonate buffer (pH 9.6) and incubated overnight at 4° C. The unbound antibodies were removed using PBS with 0.05% Tween 20 (PBS-T wash solution). The wells were blocked using 1% BSA and incubated for 1 hr at 37° C. The wells were washed thrice thoroughly using PBS-T wash solution by adding 200 μl into wells. 50 μl cell lysates were added to the wells and incubated for 1 hr at 37° C. The wells were then washed thrice by adding 200 μl of PBS-T by soaking the wells for 30 secs before each wash. Biotinylated-Hyaluronic acid (HA) antibody followed by Streptavidin-HRP was added to form an immune complex and incubated for 60 mins at 37° C. The solution was aspirated and the wells washed thrice with 200 μl wash solution by soaking the wells for 30 secs. 50 μl of both Chromogen A and Chromogen B was added to each well. The plate was incubated for 15 mins away from light at 37° C. The reaction was stopped by adding 50 μl Stop Solution and the absorbance was read at 450 nm.
# TNF-α = assay: LPS-stimulated TNF-α production in human whole blood (ELISA); assay type: cell-based; settings: for TNF-α plasma + LPS: 48 h preincubation, LPS 10 μg/ml 20 h
# Protocol: Blood and buffy coat fractions were supplied by the Scottish National Blood Transfusion Service (SNBTS), Glasgow, UK. Ficoll Histopaque (1.077 g/l), Lipopolysaccharide (from Salmonella abortus equi) was purchased from Sigma-Aldrich Co. Ltd. (UK). PGE was from Cayman Chemical Co. (Ann Arbor, MI). Human TNF-α antibody pairs for TNF-α ELISA assays was from Invitrogen/Life Sciences Europe. All drugs were dissolved in RPMI 1640 medium from Gibco BRL, UK.
# Blood was used without any further treatment following donation. It was kindly supplied by the Scottish National Blood Transfusion Service from normal healthy donors as defined by ensuring they all tested negative for HIV, hepatitis B & C, CMV and parasitic diseases such as malaria (as tested by the National Blood Transfusion service). They were also confirmed by our laboratory to be free of acute inflammatory disease at the time the blood was taken by measuring the basal level of TNF-α which was always […].
# Aliquots (800 μl) of whole blood were incubated with the compound dissolved in RPMI 1640, as indicated in the results, for the appropriate preincubation period after which LPS was added and incubations continued for a further 20 hr at 37° C. in a humidified (100%) atmosphere of 5% CO2 in air. At the end of the incubation period, supernatants from either plasma or culture medium were collected by centrifugation at 10,000 g for 30 seconds at room temperature and TNF-α levels measured using a human TNF-α ELISA system (BioSource Europe S.A., Belgium, supplied by Invitrogen).
# (§1) Table showing the effect of various idoBR1 concentrations on LPS-stimulated TNF-α production in human blood. Whole blood was preincubated for 48 h with varying concentrations of idoBR1 after which LPS (10 μg/ml) was added and incubations continued for a further 20 h. Following incubation at 37° C. (5% CO2, 100% humidity) plasma was collected from blood by centrifugation and the levels of TNF-α In plasma samples were measured by ELISA.
# as §1, with “various cucumber extract (0.09% idoBR1)” for “various idoBR1”, “of cucumber Q-Actin extract” for “of idoBR1”, “TNF-α in” for “TNF-α In”, “ELISA. Values represent the means±s.d. of n=3. * denotes P<0.05 compared to LPS alone.” for “ELISA.”
# [1] = Oral availability: idoBR1 in urine after eating cucumbers (GC-MS); assay type: in vivo, human; settings: for excretion of idoBR1 in urine: volunteer, roughly 13 mg consumed in cucumbers
# Protocol: Parisien pickling cucumbers (seeds purchased from Lidl 2013) were grown organically and three eaten at midday by each of one volunteer and one volunteer. […] The volunteers ate no Cucurbitaceae food for 15 hours prior to the experiment. Urine samples pre-consumption were collected over 3 hours as t=0 and then samples collected for 9 hours for the […] and 15 hours for the person. The 30 g cucumber sample was homogenised in 50% ethanol (aq) and after 15 hours extraction it was filtered and the idoBR1 fraction bound to cation exchange resin IR120 in the H+ form. After washing the column with water, the material displaced with 2M ammonia solution was dried (52.3 mg) and analysed by GC-MS after trimethylsilylation using Pierce TriSil. The remaining 51 mg of material then had 0.2 mg of castanospermine added for comparative quantification purposes. The entire urine samples were similarly treated using cation exchange resin except the material displaced by ammonia solution was run a second time through the same cation exchange resin (now in the ammonium form) to reduce strong bases (which will bind to IR120 in the ammonium form) and only the unretained material was kept. The urine idoBR1 fractions were dried and made up to 20 ml in water. 500 ul of each was sampled and 0.025 mg of castanospermine added.
# This was carried out on a Perkin Elmer Turbomass Gold GCMS. The spectrum of the major peak at 10.33 mins matched the GCMS spectrum of authentic idoBR1, 900288 PhytoQuest Ltd, UK). The relative response factor was calculated between authentic BR1 (900125, PhytoQuest Ltd) and castanospermine is 1:2. Assuming the same response factor, the amount of idoBR1 was estimated as 1.5 mg in the 30 g sample which means that the volunteers consumed roughly 260/30×1 5 mg=13 mg of idoBR1.
smiles,measurement,setting,value
"O=C(O)[C@@H]1NC[C@H](O)[C@@H](O)[C@@H]1O [idoBR1, (2R,3R,4R,5S)-3,4,5-trihydroxypiperidine-2-carboxylic acid]",CD44-HA,CD44-HA binding; 12.5 μg/mL,101.48 ng/mL
same,% reduction in CD44-HA levels,CD44-HA binding; 12.5 μg/mL,8.12%
same,CD44-HA,CD44-HA binding; 25 μg/mL,94.93 ng/mL
same,% reduction in CD44-HA levels,CD44-HA binding; 25 μg/mL,14.05%
same,CD44-HA,CD44-HA binding; 50 μg/mL,88.43 ng/mL
same,% reduction in CD44-HA levels,CD44-HA binding; 50 μg/mL,19.93%
same,CD44-HA,CD44-HA binding; 100 μg/mL,81.04 ng/mL
same,% reduction in CD44-HA levels,CD44-HA binding; 100 μg/mL,26.62%
same,effective concentration on LPS-induced TNF-α in human blood,TNF-α,below 10 μM
same,TNF-α plasma + LPS,TNF-α; 0.01 μM,1680 pg/mL
same,TNF-α plasma + LPS,TNF-α; 0.1 μM,950* pg/ml
same,TNF-α plasma + LPS,TNF-α; 1 μM,490* pg/ml
same,TNF-α plasma + LPS,TNF-α; 10 μM,500* pg/ml
same,TNF-α plasma (no LPS),"TNF-α; 10 μM, no LPS",200 pg/mL
same,IC50,"TNF-α; 48 hr preincubation, human blood",182 nM
same,concentration with significant activity in human blood,"TNF-α; second study, with pre-incubation",0.01 µM
same,conjugation in the urine analysis,[1]; human urine,No obvious conjugation
same,oral availability,"[1]; human, eaten cucumber",available orally
same,excretion of idoBR1 in urine,[1]; after 15 hours,approximately 2.4 mg
same,excretion of idoBR1 in urine,[1]; samples collected for 9 hours,approximately 2.1 mg
